According to article PMC7162859 (Scientific Reports, 2020):
Like-named read-outs stand apart in the source and are kept apart here.

What was measured:
[1] = Rapid equilibrium dialysis for unbound fractions in mouse plasma and brain homogenate; assay type: in vitro ADME; settings: FVB, 37 °C
Procedure: Rapid equilibrium dialysis was used to determine unbound fractions with modifications[48],[49] to manufacturer’s protocol (Thermo Fisher Scientific). Mouse plasma and brain homogenates (in 3 volumes of PBS, w/v) were spiked with 0.1 mg/mL ispinesib to obtain final concentrations of 1 µM. 300 µL of drug-spiked matrices were placed in donor chamber, and 500 µL of PBS was placed in receiver chamber of inserts (8 kDa MWCO), in triplicates. The base plate with inserts was incubated on Bioshaker at 37 °C and 1000 rpm for 4 hours. Ispinesib concentrations in samples were analyzed by liquid-chromatography tandem mass-spectrometry (LC-MS/MS).
The unbound fractions of ispinesib in plasma and brain were determined by using rapid equilibrium dialysis (RED) technique, with some alterations ^1,2 to manufacturer’s protocol (Thermo Fisher Scientific). […] RED experiments were initially conducted at 1, 2, 5 and 10 µM concentrations of ispinesib with 4 and 6 hour time points. […] Consequently, unbound fractions at 1 µM concentration and 4 hr time point were utilized for estimation of Kp,uu and free concentrations of ispinesib. […] The samples collected from the donor and receiver chambers after dialysis for 4 hours were stored at -80°C and analyzed for ispinesib concentrations by LC-MS/MS analysis. […]

[2] = tested on: orthotopic GBM1A tumors; assay type: in vivo; settings: 10 mg/kg ip each drug once every 4 days for 28 days
Procedure: Female NSG mice were intracranially implanted with 500,000 luciferase expressing GBM1A cells (transduced with lentiviral particles expressing GFP-Luciferase). After 7 days, animals were randomized into four groups and ip administered with microemulsion vehicle, 10 mg/kg elacridar, 10 mg/kg ispinesib, or a combination of 10 mg/kg ispinesib and 10 mg/kg elacridar, once every 4 days for 28 days (n = 10). The dosing schedule of once every 4 days was based on our previously publication with ispinesib. Tumor growth was monitored by bioluminescence imaging and animals were followed for survival.
The progression of tumor growth was monitored by bioluminescence imaging (BLI) using an IVIS system. Mice that underwent stereotactic injection with GFP-luciferase expressing GBM1A cells were imaged twice a week. Ten minutes prior to imaging, mice were intraperitoneally injected with d-luciferin at 75 mg/kg body weight (3 mL/kg injection volume). Animals were immobilized using 1.5% − 3.0% isoflurane provided by nose cones within the imager and were kept warm using a heated stage set at 37 °C during the imaging procedure. Following imaging for about 5 minutes, animals were removed from the IVIS chamber and monitored until they fully recovered from anesthesia.

[3] = in vivo; settings: FVB, mouse, iv, 5 mg/kg
Procedure: A single intravenous bolus dose of 5 mg/kg ispinesib (vehicle: ethanol, Tween 80 and distilled water in volume ratio of 20:2.5:77.5) was administered to FVB wild-type and Mdr1a/b^−/− Bcrp1^−/− mice. This was followed by collection of whole blood and brain samples at 0.17, 0.5, 1, 2, 4, 8 and 15 hours post-dose, and blood samples were centrifuged to separate plasma for further analysis. […] The drug concentrations in all samples were measured by a specific and sensitive LC-MS/MS assay for ispinesib.
(§3) All dosing solutions were prepared on the day of the study. A serial sacrifice (destructive sampling) design was employed for sample collection. In all the pharmacokinetic studies conducted in non-tumor bearing FVB mice, the group size was 4 at each sampling time point (n = 4). At pre-determined time points, mice were euthanized using a carbon dioxide chamber. Blood was collected by cardiac puncture and transferred to sample tubes coated with heparin. The whole brain was isolated from skull and rinsed with ice-cold distilled water, and superficial meninges were removed by blotting with tissue paper. Plasma was separated by centrifugation of blood samples at 3500 rpm and 4°C for 15 minutes. […] All the samples were stored at -80°C, until further analysis. The concentrations of ispinesib in all the samples were analyzed by LC-MS/MS. Assuming a vascular volume of 1.4% in mouse brain ^5, the concentrations in brain were corrected for residual drug in brain vasculature.
Kp=AUCbrainAUCplasma (Equation 3)
Kp,uu=AUCbrain X fu, brain AUCplasma X fu, plasma (Equation 6)
The pharmacokinetic parameters from the concentration-time profiles in plasma and brain were determined by non-compartmental analysis (NCA) using Phoenix WinNonlin version 6.4 (Certara USA, Inc., Princeton, NJ). The AUCplasma and AUCbrain were calculated using the linear trapezoidal method. The standard errors around the mean of AUC was estimated by the sparse sampling module in WinNonlin ^6.

[4] = tested on: orthotopic GBM1A tumors; test: Pharmacodynamics: monopolar spindle formation in orthotopic GBM1A tumors; assay type: in vivo, NSG mice; settings: single ip dose 10 mg/kg each drug; 8 hours
Procedure: Female NSG mice were intracerebrally injected with 500,000 GBM1A cells at coordinates X = 1.5 mm, Y = 1.5 mm and Z = 2.5 mm relative to the bregma, and tumor growth was monitored by bioluminescence imaging. After 4 weeks (tumor size of about 2 × 10^9 photons/sec), animals were randomized to receive single ip dose of microemulsion vehicle, 10 mg/kg elacridar, 10 mg/kg ispinesib, or a combination of 10 mg/kg ispinesib and 10 mg/kg elacridar (n = 8–10). At 8 hours following treatment, mice were perfused and whole brains were isolated. The samples were processed for immunofluorescence by staining for tubulin with an alpha-tubulin antibody (Cell signaling, Cat#2125) and counter staining with DAPI for visualizing nuclei. Images were scanned and counted for cells with monopolar spindles.

[5] = in vivo; settings: FVB, mouse, 10 mg/kg; for concentration at 2 h / concentration at 6 h: intraperitoneal
Procedure: (§4) Blood and brain specimens were harvested at 2 and 6 hours post-dose.
as §3

[6] = FVB wild-type; for Fold increase in Kp: 10 mg/kg i.p. ispinesib with or without 10 mg/kg i.p. elacridar; for increase of brain-to-plasma concentration ratio / brain delivery of ispinesib with elacridar co-administration: 10 mg/kg ip ispinesib + 10 mg/kg elacridar vs ispinesib alone, 2 and 6 hours, 10 mg/kg
Procedure: as §4, §3

[7] = tested on: PTEN(-/-) GBM cells; test: In vitro cytotoxicity assay (CellTiter-Glo, 72 hours); assay type: cell-based, murine; settings: for EC50: Mus musculus, 72 h, 72 hours, read-out: Ispinesib EC50
Procedure: (§1) TP53(−/−) and PTEN(−/−) cells were seeded into 96-well plates (pre-coated with fibronectin) at a density of 5,000 cells per well in DMEM media with 0.5% FBS, 1% nitrogen supplement, 10 ng/ml of FGF and 10 ng/ml of PDGFAA. Human GBM1A cells were seeded into 96 well plates (pre-coated with laminin) in DMEM media with 1% neuroPlex supplement, 20 ng/ml of EGF and 20 ng/ml of […]. After 24 hours (~70% confluency), cells were exposed to ispinesib (n = 10 wells per concentration) from 0.025–1000 nM with or without 500 nM elacridar co-treatment. The plates were incubated for 72 hours, cell viability measured using CellTiter-Glo ATP-based assay, and read on a luminometer. The dose-response data were fit to the Hill equation.
(§2) In vitro potency data was fitted to “log(inhibitor) vs. normalized response - variable slope” equation in GraphPad Prism version 6.04 (GraphPad, La Jolla, CA) to determine half-maximal effective concentration (EC50).

[8] = tested on: TP53(-/-) GBM cells; test: as above; assay type: cell-based, murine; settings: for EC50: Mus musculus, 72 h, 72 hours, read-out: Ispinesib EC50
Procedure: as §1, §2

[9] = GBM-bearing rats; for Fold increase in Kp over the Kp in normal brain of ispinesib treated group: 10 mg/kg ip, 2 hours; for increase in Kp when elacridar is co-administered with ispinesib: vs ispinesib alone
Procedure: Blood and brain (tumor-bearing) samples were collected at 2 hours post-dose, and whole brains were immediately flash frozen.
A fluorescence-guided punch biopsy technique (Supplementary Fig. S2) was developed and employed for isolation of tumor core, tumor rim (brain adjacent to tumor, BAT) and normal (non-tumor) brain regions from brain samples. Briefly, an acrylic adult rat brain matrix (WPI) was used to obtain thick coronal brain sections (1–2 mm thick) through the Td-Tomato labelled tumors. The tumor regions were identified by relative fluorescence signal (Nikon AZ100M microscope), and biospy punches with varying diameters were utilized to isolate tumor core (tumor region with fluorescence signal 5-fold or higher relative to background signal) and rim (region adjacent to tumor core with fluorescence signal 3 to 5-fold higher relative to background) (Supplementary Fig. S3). The samples from individual brains were pooled together for analysis of ispinesib concentrations by LC-MS/MS.
The tumor-bearing brain samples were harvested at 2 hours post dose (n = 9). Coronal sections that were 1-2 mm thick were obtained using an acrylic brain matrix, and a fluorescence microscopy guided punch biopsy method was utilized for the isolation of tumor core, tumor rim (brain adjacent to tumor, BAT) and normal (non-tumor) brain regions. The tumor core was identified as the tumor region with a fluorescence signal that was 5-fold or higher relative to the background signal. The tumor rim was defined as the region around the tumor core with a fluorescence signal 3 to 5-fold higher relative to the background signal. The brain tissue with a fluorescence signal similar to or lower than the background fluorescence was collected as the normal brain. The samples collected from each brain were pooled together, and ispinesib concentrations were determined using LC-MS/MS.

[10] = Brain distribution after single intraperitoneal dose in FVB wild-type, Bcrp1-/-, Mdr1a/b-/- and Mdr1a/b-/- Bcrp1-/- mice; assay type: in vivo, mouse (FVB); settings: for DA (Distribution advantage) / concentration at 2 h / concentration at 6 h / Kp at 2 h / Kp at 6 h: 10 mg/kg i.p.; for concentration at 2 h / concentration at 6 h / Kp at 2 h / Kp at 6 h: FVB, mouse, 10 mg/kg; for concentration at 2 h / concentration at 6 h: intraperitoneal; for Kp at 2 h / Kp at 6 h: brain/plasma, ip, read-out: Kp brain (Cbrain/Cplasma)
Procedure: At 2 and 6 hours following administration of ispinesib, whole blood and brain samples were harvested, and blood samples were centrifuged for plasma separation. Additional details on the conduct of in vivo pharmacokinetic studies are described in the supplementary methods. The drug concentrations in all samples were measured by a specific and sensitive LC-MS/MS assay for ispinesib.
Kp=CbrainCplasma (Equation 4)
DA= Kp, knockoutKp, wildtype (Equation 5)

Compound: Cc1ccc(C(=O)N(CCCN)[C@@H](c2nc3cc(Cl)ccc3c(=O)n2Cc2ccccc2)C(C)C)cc1 [Ispinesib, N-(3-aminopropyl)-N-[(1 R)-1-(3-benzyl-7-chloro-4-oxoquinazolin-2-yl)-2-methylpropyl]-4-methylbenzamide]
- fraction unbound at 4 h, 1 µM ([1]; mouse brain homogenate, corrected for dilution, read-out: percentage of unbound drug in brain): 0.0005 ± 0.0002
- fraction unbound at 4 h, 1 µM ([1]; mouse plasma, read-out: percentage of unbound drug in plasma): 0.006 ± 0.001
- tumor doubling time (bioluminescence, single exponential fit) ([2]; days 7–37): 9.4 days
- median survival ([2]; vehicle 61 days): 74 days
- Kp uu ([3]; brain and plasma): 0.02
- Kp uu ([3]; brain/plasma): 1
- AUC(0-inf) ([3]; plasma): 5800 ng·h/mL
- AUC(0-t) ([3]; plasma): 7500 ± 400 ng·h/mL
- clearance ([3]; plasma): 9.9 mL/min/kg
- half-life ([3]; plasma): 4.8 h
- monopolar spindles in tumor core (tubulin/DNA staining) [4]: occasional monopoles
- Kp at 2 h ([5]; brain and plasma, ip): 0.1 ± 0.08
- Kp at 6 h ([5]; brain and plasma, ip): 0.38 ± 0.14
- concentration at 2 h ([5]; brain): 80 ± 20 ng/mL
- concentration at 6 h ([5]; brain): 270 ± 90 ng/mL
- concentration at 2 h ([5]; plasma): 1110 ± 570 ng/mL
- concentration at 6 h ([5]; plasma): 730 ± 110 ng/mL
- Fold increase in Kp ([6]; 2 hrs): 1
- Fold increase in Kp ([6]; 6 hrs): 1
- increase of brain-to-plasma concentration ratio / brain delivery of ispinesib with elacridar co-administration [6]: approximately 10 fold
- increase of brain-to-plasma concentration ratio / brain delivery of ispinesib with elacridar co-administration ([6]; listed as ispinesb): 10 fold
- EC50 ([7]; [Elacridar] 0 nM): 10 ± 0.9 nM
- EC50 ([7]; [Elacridar] 500 nM): 3.3 ± 0.4 nM
- Hill Coefficient ([7]; [Elacridar] 0 nM): 0.6 ± 0.02
- Hill Coefficient ([7]; [Elacridar] 500 nM): 0.4 ± 0.01
- EC50 ([8]; [Elacridar] 0 nM): 14.4 ± 1.2 nM
- EC50 ([8]; [Elacridar] 500 nM): 3.9 ± 0.5 nM
- Hill Coefficient ([8]; [Elacridar] 0 nM): 0.6 ± 0.02
- Hill Coefficient ([8]; [Elacridar] 500 nM): 0.4 ± 0.01
- Fold increase in Kp over the Kp in normal brain of ispinesib treated group ([9]; Normal brain): 1
- Fold increase in Kp over the Kp in normal brain of ispinesib treated group ([9]; Tumor core): 7
- Fold increase in Kp over the Kp in normal brain of ispinesib treated group ([9]; Tumor rim): 2.5
- increase in Kp when elacridar is co-administered with ispinesib ([9]; tumor core): 4 fold
- increase in Kp when elacridar is co-administered with ispinesib ([9]; tumor rim and normal brain regions): approximately 10 fold
- DA (Distribution advantage) ([10]; 2 hrs, Bcrp1a/b-/-): 1
- DA (Distribution advantage) ([10]; 2 hrs, Mdr1a/b-/-): 3
- DA (Distribution advantage) ([10]; 2 hrs, Mdr1a/b-/- Bcrp1a/b-/-): 28
- DA (Distribution advantage) ([10]; 2 hrs, Wild-type): 1
- DA (Distribution advantage) ([10]; 6 hrs, Bcrp1a/b-/-): 1
- DA (Distribution advantage) ([10]; 6 hrs, Mdr1a/b-/-): 10
- DA (Distribution advantage) ([10]; 6 hrs, Mdr1a/b-/- Bcrp1a/b-/-): 33
- DA (Distribution advantage) ([10]; 6 hrs, Wild-type): 1
- concentration at 2 h ([10]; brain, 2 hrs, Bcrp1a/b-/-, read-out: Cbrain): 140 ± 20 ng/mL
- concentration at 2 h ([10]; brain, 2 hrs, Mdr1a/b-/- Bcrp1a/b-/-, read-out: Cbrain): 3770 ± 670 ng/mL
- concentration at 2 h ([10]; brain, 2 hrs, Mdr1a/b-/-, read-out: Cbrain): 580 ± 140 ng/mL
- concentration at 2 h ([10]; brain, 2 hrs, Wild-type, read-out: Cbrain): 180 ± 90 ng/mL
- concentration at 6 h ([10]; brain, 6 hrs, Bcrp1a/b-/-, read-out: Cbrain): 150 ± 30 ng/mL
- concentration at 6 h ([10]; brain, 6 hrs, Mdr1a/b-/- Bcrp1a/b-/-, read-out: Cbrain): 5590 ± 2850 ng/mL
- concentration at 6 h ([10]; brain, 6 hrs, Mdr1a/b-/-, read-out: Cbrain): 1100 ± 100 ng/mL
- concentration at 6 h ([10]; brain, 6 hrs, Wild-type, read-out: Cbrain): 140 ± 80 ng/mL
- Kp at 2 h ([10]; 2 hrs, Bcrp1a/b-/-): 0.08
- Kp at 2 h ([10]; 2 hrs, Mdr1a/b-/- Bcrp1a/b-/-): 3.07
- Kp at 2 h ([10]; 2 hrs, Mdr1a/b-/-): 0.35
- Kp at 2 h ([10]; 2 hrs, Wild-type): 0.11
- Kp at 6 h ([10]; 6 hrs, Bcrp1a/b-/-): 0.15
- Kp at 6 h ([10]; 6 hrs, Mdr1a/b-/- Bcrp1a/b-/-): 5.2
- Kp at 6 h ([10]; 6 hrs, Mdr1a/b-/-): 1.52
- Kp at 6 h ([10]; 6 hrs, Wild-type): 0.16
- concentration at 2 h ([10]; plasma, 2 hrs, Bcrp1a/b-/-, read-out: Cplasma): 1740 ± 420 ng/mL
- concentration at 2 h ([10]; plasma, 2 hrs, Mdr1a/b-/- Bcrp1a/b-/-, read-out: Cplasma): 1590 ± 1070 ng/mL
- concentration at 2 h ([10]; plasma, 2 hrs, Mdr1a/b-/-, read-out: Cplasma): 1750 ± 730 ng/mL
- concentration at 2 h ([10]; plasma, 2 hrs, Wild-type, read-out: Cplasma): 1610 ± 720 ng/mL
- concentration at 6 h ([10]; plasma, 6 hrs, Bcrp1a/b-/-, read-out: Cplasma): 1060 ± 400 ng/mL
- concentration at 6 h ([10]; plasma, 6 hrs, Mdr1a/b-/- Bcrp1a/b-/-, read-out: Cplasma): 1030 ± 210 ng/mL
- concentration at 6 h ([10]; plasma, 6 hrs, Mdr1a/b-/-, read-out: Cplasma): 870 ± 540 ng/mL
- concentration at 6 h ([10]; plasma, 6 hrs, Wild-type, read-out: Cplasma): 870 ± 540 ng/mL
- efflux transporter substrate status ([10]; from brain distribution in transporter-deleted mice): a substrate for P-gp and Bcrp transporters
